The values below come from patent publication US9505762B2, “Purine derivatives as CB2 receptor agonists” (Hoffmann-La Roche Inc., priority 2013, dated 2016).

SMILES strings stand for the structures. Where only a bound is given, the exact number is not on record here.

In experiment [1] the target is human CB2 receptors (Homo sapiens (Human), UniProt P34972). Put plainly: functional cAMP assay, CB2. In kind it is cell-based. The settings on record: CHO cells expressing human CB2.
Experiment [2] deals with human CB1 receptors (Homo sapiens (Human), UniProt P21554). The experiment is described as follows: functional cAMP assay, CB1. In kind it is cell-based. Conditions: CHO cells expressing human CB1. (In general: cAMP levels reflect the balance of adenylyl cyclase and phosphodiesterase activity.)
Sequence of human CB1 receptors (P21554 whole entry): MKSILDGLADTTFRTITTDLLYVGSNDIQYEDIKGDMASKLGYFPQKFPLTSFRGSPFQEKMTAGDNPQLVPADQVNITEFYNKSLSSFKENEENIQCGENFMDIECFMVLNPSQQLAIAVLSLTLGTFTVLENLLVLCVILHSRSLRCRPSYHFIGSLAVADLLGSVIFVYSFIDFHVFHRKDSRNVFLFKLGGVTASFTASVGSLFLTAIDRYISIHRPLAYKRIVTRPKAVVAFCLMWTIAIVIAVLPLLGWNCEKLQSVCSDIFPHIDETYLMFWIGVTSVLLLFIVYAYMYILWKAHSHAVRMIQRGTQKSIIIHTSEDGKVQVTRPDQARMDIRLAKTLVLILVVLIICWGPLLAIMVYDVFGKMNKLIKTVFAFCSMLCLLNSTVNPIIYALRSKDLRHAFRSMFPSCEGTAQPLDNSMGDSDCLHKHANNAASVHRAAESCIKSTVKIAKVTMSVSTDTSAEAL

Sequence of human CB2 receptors (P34972 whole entry): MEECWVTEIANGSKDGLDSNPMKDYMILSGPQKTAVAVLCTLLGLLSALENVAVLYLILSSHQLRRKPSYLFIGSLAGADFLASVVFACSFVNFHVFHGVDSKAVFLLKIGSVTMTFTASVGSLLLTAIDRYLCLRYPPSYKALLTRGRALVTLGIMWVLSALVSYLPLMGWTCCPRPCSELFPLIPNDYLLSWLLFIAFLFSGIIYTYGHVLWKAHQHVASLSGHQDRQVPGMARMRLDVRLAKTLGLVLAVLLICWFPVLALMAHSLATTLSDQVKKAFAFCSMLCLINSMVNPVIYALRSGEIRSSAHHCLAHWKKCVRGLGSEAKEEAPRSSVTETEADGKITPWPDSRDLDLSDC

What is called EC50 is the midpoint of the concentration-response curve. Regarding `Cc1noc(Cn2cnc3c(N4CCC(F)(F)C4)nc(C(C)(C)C)nc32)n1` [Example 7, 5-[[2-tert-butyl-6-(3,3-difluoropyrrolidin-1-yl)purin-9-yl]methyl]-3-methyl-1,2,4-oxadiazole], the EC50 in experiment [1] was 34.7 nM; in experiment [2] it was greater than 10000 nM.
In the same order, the values of `CC(C)(C)Nc1nc(N2CCC(F)(F)C2)c2ncn(Cc3ncccc3Cl)c2n1` [Example 112, N-tert-butyl-9-[(3-chloropyridin-2-yl)methyl]-6-(3,3-difluoropyrrolidin-1-yl)purin-2-amine] are 7.9 nM and greater than 10000 nM.
With `CC1(O)CCN(c2nc(C(C)(C)C)nc3c2ncn3Cc2ccccc2S(C)(=O)=O)C1` (stereo not drawn) [Example 74, 1-[2-tert-butyl-9-[(2-methylsulfonylphenyl)methyl]purin-6-yl]-3-methylpyrrolidin-3-ol], the values for the EC50 in experiment [1] and in experiment [2] were 88.4 nM and greater than 10000 nM, respectively.
With `CC(C)(C)c1nc(N2CCC(O)C2)c2ncn(Cc3cccnc3Cl)c2n1` (stereo not drawn) [Example 33, 1-[2-tert-butyl-9-[(2-chloropyridin-3-yl)methyl]purin-6-yl]pyrrolidin-3-ol], the values for the EC50 in experiment [1] and in experiment [2] were 3.4 nM and greater than 10000 nM, respectively.
Regarding `CC(C)(C)c1nc(N2CCC3(COC3)C2)c2ncn(Cc3ccccc3Cl)c2n1` [Example 56, 7-[2-tert-butyl-9-[(2-chlorophenyl)methyl]purin-6-yl]-2-oxa-7-azaspiro[3.4]octane], the EC50 in experiment [1] is 55.8 nM; in experiment [2], greater than 10000 nM.
The like results for `CC(C)(C)c1nc(N2CC[C@H](O)C2)c2ncn(Cc3nnnn3C3CC3)c2n1` [Example 139, (3S)-1-[2-tert-butyl-9-[(1-cyclopropyltetrazol-5-yl)methyl]purin-6-yl]pyrrolidin-3-ol] were, in that order, 201 nM and greater than 10000 nM.
Turning to `CC(C)(C)c1nc(N2CCC(O)C2)c2ncn(CC3CCCCC3)c2n1` (stereo not drawn) [Example 40, 1-[2-tert-butyl-9-(cyclohexylmethyl)purin-6-yl]pyrrolidin-3-ol], the EC50 was 71.2 nM in experiment [1] and greater than 10000 nM in experiment [2].
Regarding `Cc1nonc1Cn1cnc2c(N3CCC(O)C3)nc(C(C)(C)C)nc21` (stereo not drawn) [Example 43, 1-[2-tert-butyl-9-[(4-methyl-1,2,5-oxadiazol-3-yl)methyl]purin-6-yl]pyrrolidin-3-ol], the EC50 in experiment [1] is 16.6 nM; in experiment [2], greater than 10000 nM.
Take `CC(C)(C)Nc1nc(N2CC3(COC3)C2)c2ncn(Cc3ccccc3Cl)c2n1` [Example 138, N-tert-butyl-9-[(2-chlorophenyl)methyl]-6-(2-oxa-6-azaspiro[3.3]heptan-6-yl)purin-2-amine]: the EC50 in experiment [1] was 78.1 nM; in experiment [2] it was greater than 10000 nM.
Take `CC(=O)N[C@H]1CCN(c2nc(C(C)(C)C)nc3c2ncn3Cc2ccccc2C(F)(F)F)C1` [Example 51, N—[(S)-1-[2-tert-butyl-9-[[2-(trifluoromethyl)phenyl]methyl]purin-6-yl]pyrrolidin-3-yl]acetamide]: the EC50 in experiment [1] was 64.7 nM; in experiment [2] it was greater than 10000 nM.
In the case of `Cc1nonc1Cn1cnc2c(N3CCC(F)(F)C3)nc(OCC(C)(C)C)nc21` [Example 140, 3-[[6-(3,3-difluoropyrrolidin-1-yl)-2-(2,2-dimethylpropoxy)purin-9-yl]methyl]-4-methyl-1,2,5-oxadiazole], the figures for the EC50 in experiment [1] and in experiment [2] were 9.2 nM and greater than 10000 nM, respectively.
Consider `CC(C)(C)c1nc(N2CC[C@H](O)C2)c2ncn(Cc3nnnn3CC3CC3)c2n1` [Example 164, (3S)-1-[2-tert-butyl-9-[[1-(cyclopropylmethyl)tetrazol-5-yl]methyl]purin-6-yl]pyrrolidin-3-ol], for which the half-maximal effective concentration (EC50) in experiment [1] is 20.7 nM; in experiment [2], greater than 10000 nM.
In the same order, the values of `Cc1nnc(Cn2cnc3c(N4CCC(F)(F)C4)nc(OCC(C)(C)C)nc32)o1` [Example 127, 2-[[6-(3,3-difluoropyrrolidin-1-yl)-2-(2,2-dimethylpropoxy)purin-9-yl]methyl]-5-methyl-1,3,4-oxadiazole] are 332 nM and greater than 10000 nM.
For `CC(=O)N[C@H]1CCN(c2nc(C(C)(C)C)nc3c2ncn3Cc2c[nH]nc2C(F)(F)F)C1` [Example 75, N—[(S)-1-[2-tert-butyl-9-[[3-(trifluoromethyl)-1H-pyrazol-4-yl]methyl]purin-6-yl]pyrrolidin-3-yl]acetamide], the figures for the EC50 in experiment [1] and in experiment [2] were 280 nM and greater than 10000 nM, respectively.
The like results for `CC1(O)CN(c2nc(C(C)(C)C)nc3c2ncn3Cc2ncccc2Cl)C1` [Example 169, 1-[2-tert-butyl-9-[(3-chloropyridin-2-yl)methyl]purin-6-yl]-3-methylazetidin-3-ol] were, in that order, 51.4 nM and greater than 10000 nM.
As for `Cc1nonc1Cn1cnc2c(N3CC[C@H](O)C3)nc(C(C)(C)C)nc21` [Example 96, (3S)-1-[2-tert-butyl-9-[(4-methyl-1,2,5-oxadiazol-3-yl)methyl]purin-6-yl]pyrrolidin-3-ol], the values for the EC50 in experiment [1] and in experiment [2] were 14.8 nM and greater than 10000 nM, respectively.
In the same order, the values of `CC(C)(C)c1nc(N2CCC(F)(F)C2)c2ncn(C3CCOC3)c2n1` (stereo not drawn) [Example 12, 2-tert-butyl-6-(3,3-difluoropyrrolidin-1-yl)-9-(oxolan-3-yl)purine] are 3.1 nM and greater than 10000 nM.
The like results for `CC(C)(C)c1nc(N2CCC(O)C2)c2ncn(Cc3ccccc3Cl)c2n1` (stereo not drawn) [Example 22, 1-[2-tert-butyl-9-[(2-chlorophenyl)methyl]purin-6-yl]pyrrolidin-3-ol] were, in that order, 5.7 nM and greater than 10000 nM.
The like results for `FC1(F)CCN(c2nc(Cl)nc3c2ncn3Cc2ccccc2)C1` [Example 154, 9-benzyl-2-chloro-6-(3,3-difluoropyrrolidin-1-yl)purine] were, in that order, 211 nM and greater than 10000 nM.
Consider `CC(C)(C)c1nc(N2CC[C@H](O)C2)c2ncn(Cc3ccccc3C(F)(F)F)c2n1` [Example 86, (3S)-1-[2-tert-butyl-9-[[2-(trifluoromethyl)phenyl]methyl]purin-6-yl]pyrrolidin-3-ol], for which the EC50 in experiment [1] is 1.1 nM; in experiment [2], greater than 10000 nM.
In the same order, the values of `CC(C)(C)c1nc(N2CC(F)(F)C(F)(F)C2)c2ncn(Cc3ccccc3S(C)(=O)=O)c2n1` [Example 106, 2-tert-butyl-9-[(2-methylsulfonylphenyl)methyl]-6-(3,3,4,4-tetrafluoropyrrolidin-1-yl)purine] are 39.9 nM and greater than 10000 nM.
For `CC(C)(C)c1nc(N2CCC(F)(F)C2)c2ncn(Cc3ccc(F)cc3Cl)c2n1` [Example 4, 2-tert-butyl-9-[(2-chloro-4-fluorophenyl)methyl]-6-(3,3-difluoropyrrolidin-1-yl)purine], the EC50 in experiment [1] was 3.1 nM; in experiment [2], greater than 10000 nM.
In the case of `CC(C)(C)c1nc(N2CCC3(COC3)C2)c2ncn(Cc3n[nH]cc3C(F)(F)F)c2n1` [Example 78, 7-[2-tert-butyl-9-[[4-(trifluoromethyl)-1H-pyrazol-3-yl]methyl]purin-6-yl]-2-oxa-7-azaspiro[3.4]octane], the EC50 is 17.5 nM in experiment [1] and greater than 10000 nM in experiment [2].
Regarding `Cc1noc(Cn2cnc3c(N4CCC(F)(F)C4)nc(OCC(C)(C)C)nc32)n1` [Example 128, 5-[[6-(3,3-difluoropyrrolidin-1-yl)-2-(2,2-dimethylpropoxy)purin-9-yl]methyl]-3-methyl-1,2,4-oxadiazole], the EC50 in experiment [1] is 109 nM; in experiment [2] it was greater than 10000 nM.
Take `Cc1nnc(Cn2cnc3c(N4CC(F)(F)C(F)(F)C4)nc(C(C)(C)C)nc32)o1` [Example 79, 2-[[2-tert-butyl-6-(3,3,4,4-tetrafluoropyrrolidin-1-yl)purin-9-yl]methyl]-5-methyl-1,3,4-oxadiazole]: the EC50 in experiment [1] was 116 nM; in experiment [2], greater than 10000 nM.
The like results for `CC(C)(C)c1nc(N2CCC(F)(F)C2)c2ncn(CC(=O)c3ccccn3)c2n1` [Example 24, 2-[2-tert-butyl-6-(3,3-difluoropyrrolidin-1-yl)purin-9-yl]-1-pyridin-2-ylethanone] were, in that order, 69.2 nM and greater than 10000 nM.
Take `CC(=O)N[C@H]1CCN(c2nc(C(C)(C)C)nc3c2ncn3Cc2ncccc2Cl)C1` [Example 54, N—[(S)-1-[2-tert-butyl-9-[(3-chloropyridin-2-yl)methyl]purin-6-yl]pyrrolidin-3-yl]acetamide]: the EC50 in experiment [1] is 388 nM; in experiment [2] it was greater than 10000 nM.
For `CC(C)(C)COc1nc(N2CCC(F)(F)C2)c2nc[nH]c2n1` [Example 151, 6-(3,3-difluoropyrrolidin-1-yl)-2-(2,2-dimethylpropoxy)-9H-purine], the EC50 is 28.7 nM in experiment [1] and greater than 10000 nM in experiment [2].
With `CC1(O)CCN(c2nc(C(C)(C)C)nc3c2ncn3CCC(F)(F)F)C1` (stereo not drawn) [Example 102, 1-[2-tert-butyl-9-(3,3,3-trifluoropropyl)purin-6-yl]-3-methylpyrrolidin-3-ol], the EC50 in experiment [1] was 135 nM; in experiment [2], greater than 10000 nM.
In the same order, the values of `Cc1noc(Cn2cnc3c(N4CCC(O)C4)nc(C(C)(C)C)nc32)n1` (stereo not drawn) [Example 29, 1-[2-tert-butyl-9-[(3-methyl-1,2,4-oxadiazol-5-yl)methyl]purin-6-yl]pyrrolidin-3-ol] are 427 nM and greater than 10000 nM.
The like results for `Cc1noc(Cn2cnc3c(N4CC5(COC5)C4)nc(NC(C)(C)C)nc32)n1` [Example 141, N-tert-butyl-9-[(3-methyl-1,2,4-oxadiazol-5-yl)methyl]-6-(2-oxa-6-azaspiro[3.3]heptan-6-yl)purin-2-amine] were, in that order, 40.9 nM and greater than 10000 nM.
In the same order, the values of `Cc1noc(Cn2cnc3c(N4CCC(F)(F)C4)nc(NC(C)(C)C)nc32)n1` [Example 115, N-tert-butyl-6-(3,3-difluoropyrrolidin-1-yl)-9-[(3-methyl-1,2,4-oxadiazol-5-yl)methyl]purin-2-amine] are 195 nM and greater than 10000 nM.
Turning to `CC(C)(C)c1nc(N2CCC(O)C2)c2ncn(Cc3cccc(Cl)c3)c2n1` (stereo not drawn) [Example 25, 1-[2-tert-butyl-9-[(3-chlorophenyl)methyl]purin-6-yl]pyrrolidin-3-ol], the EC50 in experiment [1] was 58.8 nM; in experiment [2] it was greater than 10000 nM.
